Measurements reported in patent publication US6737383B1, “Herbicidal oxadiazolidines” (priority 1999, dated 2004).

Legend:
purple nutsedge = test: Test B pre/postemergence purple nutsedge; assay type: in vivo, Cyperus rotundus
In short: (§1)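 Herbicidal effect was estimated by eye on a ten-point control scale after plants spent twelve to sixteen days in a greenhouse following soil or foliar treatment. Foliar sprays targeted plants at one to four leaves; all doses were formulated in a non-phytotoxic solvent with surfactant.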

blackgrass = test: Test B pre/postemergence blackgrass; assay type: in vivo, Alopecurus myosuroides
In short: as §1

pigweed = test: Test B pre/postemergence pigweed; assay type: in vivo, Amaranthus retroflexus
In short: as §1

wild oat = test: Test B pre/postemergence wild oat; assay type: in vivo, Avena fatua
In short: as §1

corn = test: Test B pre/postemergence corn; assay type: in vivo, Zea mays
In short: as §1

bamyardgrass = test: Test B flood test barnyardgrass; assay type: in vivo, Echinochloa crus-galli
In short: (§2)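 Read-out is a visual response score from 0 (no effect) to 10 (complete control), assigned by comparison with untreated controls. Treatment was applied at the 2-leaf stage, and plants stayed in the greenhouse for twelve to sixteen days before scoring.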

velvetleaf = test: Test B pre/postemergence velvetleaf; assay type: in vivo, Abutilon theophrasti
In short: as §1

cocklebur = test: Test B pre/postemergence cocklebur; assay type: in vivo, Xanthium strumarium
In short: as §1

surinam grass = test: Test B pre/postemergence surinam grass; assay type: in vivo, Brachiaria decumbens
In short: as §1

bedstraw = test: Test B pre/postemergence bedstraw; assay type: in vivo, Galium aparine
In short: as §1

smallflower flatsedge = test: Test B flood test smallflower flatsedge; assay type: in vivo, Cyperus difformis
In short: as §2

sugar beet = test: Test B pre/postemergence sugar beet; assay type: in vivo, Beta vulgaris
In short: as §1

rice = test: Test B flood test rice; assay type: in vivo, Oryza sativa
In short: as §2

soybean = test: Test B pre/postemergence soybean; assay type: in vivo, Glycine max
In short: as §1

giant foxtail = test: Test B pre/postemergence giant foxtail; assay type: in vivo, Setaria faberii
In short: as §1

crabgrass = test: Test B pre/postemergence crabgrass; assay type: in vivo, Digitaria sanguinalis
In short: as §1

[1] = Postemergence, Rate 62 g/ha, scale 0 to 10, 0 is no effect, 10 is complete control
[2] = Postemergence, Rate 250 g/ha, scale 0 to 10, 0 no effect, 10 complete control
[3] = Preemergence, Rate 62 g/ha, scale 0 to 10 (0 no effect, 10 complete control)
[4] = Preemergence, Rate 125 g/ha, scale 0 to 10 (0 no effect, 10 complete control)
[5] = Preemergence, Rate 250 g/ha, scale of 0 to 10 where 0 is no effect and 10 is complete control
[6] = Preemergence, Rate 500 g/ha, scale 0 (no effect) to 10 (complete control)
[7] = Rate 125 g/ha, Postemergence, scale 0 to 10, 0 no effect, 10 complete control
[8] = Rate 500 g/ha, Postemergence, scale 0 to 10, 0 no effect, 10 complete control
[9] = Rate 125 g/ha, Postemergence section (flood test species), scale 0 to 10, 0 no effect, 10 complete control
[10] = Rate 500 g/ha, listed under Postemergence (flood test species), scale 0 to 10, 0 no effect, 10 complete control
[11] = flood test, listed under Postemergence, Rate 250 g/ha, scale 0 to 10, 0 no effect, 10 complete control

**Q.** What does the source list for `CCN(CC)C(=O)n1oc(=O)n(Cc2cccs2)c1=O` [Compound 77]?
**A.** Nutsedge plant response rating (purple nutsedge; [1]): 0; Nutsedge plant response rating (purple nutsedge; [2]): 0; Nutsedge plant response rating (purple nutsedge; [3]): 0; Plant response rating, Nutsedge (purple nutsedge; [4]): 2; Plant response rating, Nutsedge (purple nutsedge; [5]): 3; Nutsedge plant response rating (purple nutsedge; [6]): 6; Nutsedge plant response rating (purple nutsedge; [7]): 0; Nutsedge plant response rating (purple nutsedge; [8]): 0; Blackgrass plant response rating (blackgrass; [1]): 0; Blackgrass plant response rating (blackgrass; [2]): 0; Blackgrass plant response rating (blackgrass; [3]): 0; Plant response rating, Blackgrass (blackgrass; [4]): 0; Plant response rating, Blackgrass (blackgrass; [5]): 0; Blackgrass plant response rating (blackgrass; [6]): 0; Blackgrass plant response rating (blackgrass; [7]): 0; Blackgrass plant response rating (blackgrass; [8]): 4; Redroot pigweed plant response rating (pigweed; [1]): 0; Redroot pigweed plant response rating (pigweed; [2]): 0; Redroot pigweed plant response rating (pigweed; [3]): 0; Plant response rating, Redroot pigweed (pigweed; [4]): 0; Plant response rating, Redroot pigweed (pigweed; [5]): 0; Redroot pigweed plant response rating (pigweed; [6]): 0; Redroot pigweed plant response rating (pigweed; [7]): 0; Redroot pigweed plant response rating (pigweed; [8]): 0; Wild oats plant response rating (wild oat; [1]): 0; Wild oats plant response rating (wild oat; [2]): 0; Wild oats plant response rating (wild oat; [3]): 0; Plant response rating, Wild oats (wild oat; [4]): 0; Plant response rating, Wild oats (wild oat; [5]): 0; Wild oats plant response rating (wild oat; [6]): 0; Wild oats plant response rating (wild oat; [7]): 0; Wild oats plant response rating (wild oat; [8]): 3; Corn plant response rating (corn; [1]): 0; Corn plant response rating (corn; [2]): 0; Corn plant response rating (corn; [3]): 0; Plant response rating, Corn (corn; [4]): 0; Plant response rating, Corn (corn; [5]): 0; Corn plant response rating (corn; [6]): 0; Corn plant response rating (corn; [7]): 0; Corn plant response rating (corn; [8]): 0; Barnyardgrass plant response rating (bamyardgrass; [1]): 0; Barnyardgrass plant response rating (bamyardgrass; [9]): 0; Barnyardgrass plant response rating (bamyardgrass; [10]): 0; Barnyardgrass plant response rating (bamyardgrass; [11]): 0; Velvetleaf plant response rating (velvetleaf; [1]): 0; Velvetleaf plant response rating (velvetleaf; [2]): 0; Velvetleaf plant response rating (velvetleaf; [3]): 0; Plant response rating, Velvetleaf (velvetleaf; [4]): 0; Plant response rating, Velvetleaf (velvetleaf; [5]): 0; Velvetleaf plant response rating (velvetleaf; [6]): 3; Velvetleaf plant response rating (velvetleaf; [7]): 0; Velvetleaf plant response rating (velvetleaf; [8]): 0; Cocklebur plant response rating (cocklebur; [1]): 0; Cocklebur plant response rating (cocklebur; [2]): 0; Cocklebur plant response rating (cocklebur; [3]): 0; Plant response rating, Cocklebur (cocklebur; [4]): 0; Plant response rating, Cocklebur (cocklebur; [5]): 0; Cocklebur plant response rating (cocklebur; [6]): 0; Cocklebur plant response rating (cocklebur; [7]): 0; Cocklebur plant response rating (cocklebur; [8]): 4; B. signalgrass plant response rating (surinam grass; [1]): 0; B. signalgrass plant response rating (surinam grass; [2]): 0; B. signalgrass plant response rating (surinam grass; [3]): 0; Plant response rating, B. signalgrass (surinam grass; [4]): 0; Plant response rating, B. signalgrass (surinam grass; [5]): 0; B. signalgrass plant response rating (surinam grass; [6]): 0; B. signalgrass plant response rating (surinam grass; [7]): 0; B. signalgrass plant response rating (surinam grass; Rate 500 g/ha, Postemergence, scale of 0 to 10 where 0 is no effect and 10 is complete control): 2; Bedstraw plant response rating (bedstraw; [1]): 0; Bedstraw plant response rating (bedstraw; [2]): 0; Bedstraw plant response rating (bedstraw; [3]): 0; Plant response rating, Bedstraw (bedstraw; [4]): 0; Plant response rating, Bedstraw (bedstraw; [5]): 0; Bedstraw plant response rating (bedstraw; [6]): 0; Bedstraw plant response rating (bedstraw; [7]): 0; Bedstraw plant response rating (bedstraw; [8]): 0; S. Flatsedge plant response rating (smallflower flatsedge; [1]): 0; S. Flatsedge plant response rating (smallflower flatsedge; [9]): 0; S. Flatsedge plant response rating (smallflower flatsedge; [10]): 3; S. Flatsedge plant response rating (smallflower flatsedge; [11]): 0; Sugarbeets plant response rating (sugar beet; [1]): 0; Sugarbeets plant response rating (sugar beet; [2]): 0; Sugarbeets plant response rating (sugar beet; [3]): 0; Plant response rating, Sugarbeets (sugar beet; [4]): 0; Plant response rating, Sugarbeets (sugar beet; [5]): 0; Sugarbeets plant response rating (sugar beet; [6]): 0; Sugarbeets plant response rating (sugar beet; [7]): 0; Sugarbeets plant response rating (sugar beet; [8]): 0; Rice plant response rating (rice; [1]): 0; Rice plant response rating (rice; [9]): 0; Rice plant response rating (rice; [10]): 0; Rice plant response rating (rice; [11]): 0; Soybean plant response rating (soybean; [1]): 0; Soybean plant response rating (soybean; [2]): 1; Soybean plant response rating (soybean; [3]): 0; Plant response rating, Soybean (soybean; [4]): 0; Plant response rating, Soybean (soybean; [5]): 0; Soybean plant response rating (soybean; [6]): 0; Soybean plant response rating (soybean; [7]): 0; Soybean plant response rating (soybean; [8]): 1; Giant foxtail plant response rating (giant foxtail; [1]): 0; Giant foxtail plant response rating (giant foxtail; [2]): 0; Giant foxtail plant response rating (giant foxtail; [3]): 0; Plant response rating, Giant foxtail (giant foxtail; [4]): 0; Plant response rating, Giant foxtail (giant foxtail; [5]): 3; Giant foxtail plant response rating (giant foxtail; [6]): 5; Giant foxtail plant response rating (giant foxtail; [7]): 0; Giant foxtail plant response rating (giant foxtail; [8]): 2; Crabgrass plant response rating (crabgrass; [1]): 0; Crabgrass plant response rating (crabgrass; [2]): 0; Crabgrass plant response rating (crabgrass; [3]): 0; Plant response rating, Crabgrass (crabgrass; [4]): 2; Plant response rating, Crabgrass (crabgrass; [5]): 2; Crabgrass plant response rating (crabgrass; [6]): 3; Crabgrass plant response rating (crabgrass; [7]): 0; Crabgrass plant response rating (crabgrass; [8]): 0
